Data published in US8399490B2, “Insecticides” (Syngenta Crop Protection LLC, priority 2007, dated 2013).
Read-outs that look alike come from different tables or passages of the source.

Key:
[1] = tested on: Spodoptera littoralis (Egyptian cotton leafworm); test: Example B1: Activity against Spodoptera littoralis (larvicide, feeding/residual contact activity, preventive), cotton leaf discs; assay type: in vivo; settings: foliar, 72 h, L1 larvae on cotton leaf discs, 3 days after treatment
Source text: Activity Against Spodoptera littoralis (Egyptian Cotton Leafworm)
(Larvicide, Feeding/Residual Contact Activity, Preventive)
The samples are checked for mortality, repellent effect, feeding behaviour, and growth regulation 3 days after treatment. In this test, compounds listed in Table P above show good activity. In particular compounds P.1, P.2, P.3, P.4, P.5, P.6, P.7, P.8, P.9, P.10, P.11, P.12, P.13, P.14, P.15, P.16, P.17, P.18, P.19, P.20, P.21, P.22, P.23, P.24, P.25, P.26, P.27, P.28, P.29, P.30, P.31, P.32, P.33, P.34, P.35, P.36, P.37, P.38, P.39, P.40, P.41, P.42, P.43, P.44, P.46, P.50, P.51, P.52, P.55, P.56, P.57, P.58, P.59, P.60, P61, P.66, P.67, P.68, P.69, P.70, P.71, P.72, P.73, P.74, P.75, P.76, P.77, P.78, P.83, P.84, P.87 and P.88 show an activity of over 80% at a concentration of 400 ppm.

[2] = tested on: Heliothis virescens (tobacco budworm); test: Example B2: Activity against Heliothis virescens (ovo-larvicide, feeding/contact activity, curative), eggs on artificial diet; assay type: in vivo; settings: 96 h, 4 days incubation
Method: Activity Against Heliothis virescens (Tobacco Budworm) (Ovo-Larvicide, Feeding/Contact Activity, Curative) Eggs (0-24 h old) are placed in 24-well microtiter plate on artificial diet and treated with test solutions by pipetting. After an incubation period of 4 days, samples are checked for egg mortality, larval mortality, and growth regulation.

[3] = tested on: Plutella xylostella (diamond back moth); test: Example B3: Plutella xylostella (larvicide, feeding/residual contact activity, preventive), artificial diet MTP; assay type: in vivo; settings: 120 h, L2 larvae on artificial diet, 5 days incubation
Method: Plutella xylostella (Diamond Back Moth) (Larvicide, Feeding/Residual Contact Activity, Preventive) 24-well microtiter plate (MTP) with artificial diet is treated with test solutions by pipetting. After drying, the MTP's are infested with larvae (L2) (10-15 per well). After an incubation period of 5 days, samples are checked for larval mortality, antifeedant and growth regulation.

[4] = tested on: Diabrotica balteata (corn root worm); test: Example B4: Diabrotica balteata (larvicide, feeding/residual contact activity, preventive), artificial diet MTP; assay type: in vivo; settings: 120 h, L2 larvae on artificial diet, 5 days incubation
Method: Diabrotica balteata (Corn Root Worm) (Larvicide, Feeding/Residual Contact Activity, Preventive) 24-well microtiter plate (MTP) with artificial diet is treated with test solutions by pipetting. After drying, the MTP's are infested with larvae (L2) (6-10 per well). After an incubation period of 5 days, samples are checked for larval mortality, antifeedant and growth regulation.

[5] = tested on: Myzus persicae (green peach aphid); settings: foliar, 144 h, read-out: activity
[6] = tested on: Myzus persicae (green peach aphid); test: Example B6: Activity against Myzus persicae (mixed population, systemic/feeding activity, curative), pea seedling roots in test solution; settings: 144 h, read-out: activity

Measured: pest or weed control at 400 ppm

CNC(=O)c1c(NC(=O)c2cc(C(F)F)nn2-c2ncccc2Cl)c(Br)cc2c1OC(C)C2 (stereo not shown) [P.83]
not listed: [6]
> 80%: all other assays above

CCNC(=O)c1c(NC(=O)c2cc(OC)nn2-c2ncccc2Cl)c(C)cc2c1OCO2 [P.76]
> 80%: [1] | [2] | [3] | [6]

CC(C)NC(=O)c1c(NC(=O)c2cc(Cl)nn2-c2ncccc2Cl)c(Cl)cc2c1OCO2 [P.3]
> 80%: [1] | [2] | [3] | [4]

Cc1cc2c(c(C(=O)NC(C)(C)C)c1NC(=O)c1cc(C(F)F)nn1-c1ncccc1Cl)OCO2 [P.73]
> 80%: [1] | [2] | [3] | [4]

CC(C)NC(=O)c1c(NC(=O)c2cc(OCC(F)(F)F)nn2-c2ncccc2Cl)c(Cl)cc2c1OCO2 [P.57]
> 80%: [1] | [2] | [3] | [4]

Cc1cc2c(c(C(=O)NC(C)C)c1NC(=O)c1cc(C(F)(F)F)nn1-c1ncccc1Cl)OC(F)(F)O2 [P.44]
> 80%: [1] | [2] | [3] | [4]

Cc1cc2c(c(C(=O)NC3(C4CC4)CC3)c1NC(=O)c1cc(C(F)(F)F)nn1-c1ncccc1Cl)OCO2 [P.69]
> 80%: [1] | [2] | [3] | [4]

CC(C)NC(=O)c1c(NC(=O)c2cc(Br)nn2-c2ncccc2Cl)c(Cl)cc2c1OCO2 [P.10]
> 80%: [1] | [2] | [3] | [4]

COc1cc(C(=O)Nc2c(Cl)cc3c(c2C(=O)NC(C)C)C(O)CC3)n(-c2ncccc2Cl)n1 (stereo not shown) [P.66]
> 80%: [1] | [2] | [3] | [6]

O=C(NC1(C2CC2)CC1)c1c(NC(=O)c2cc(Cl)nn2-c2ncccc2Cl)c(Cl)cc2c1OCO2 [P.6]
> 80%: [1] | [2] | [3] | [4]

CCNC(=O)c1c(NC(=O)c2cc(C(F)(F)F)nn2-c2ncccc2Cl)c(Cl)cc2c1OCO2 [P.2]
> 80%: [1] | [2] | [3] | [4]

CNC(=O)c1c(NC(=O)c2cc(C(F)(F)F)nn2-c2ncccc2Cl)c(C)cc2c1OC(F)(F)O2 [P.43]
> 80%: [1] | [2] | [3] | [4]

Cc1cc2c(c(C(=O)NC(C)C)c1NC(=O)c1cc(Br)nn1-c1ncccc1Cl)OCO2 [P.75]
> 80%: [1] | [2] | [3] | [4]

CC(C)NC(=O)c1c(NC(=O)c2cc(Br)nn2-c2ncccc2Cl)c(Br)cc2c1OC(F)(F)O2 [P.42]
> 80%: [1] | [2] | [3] | [4]

CC(C)NC(=O)c1c(NC(=O)c2cc(C(F)(F)F)nn2-c2ncccc2Cl)c(Cl)cc2c1OCO2 [P.1]
> 80%: [1] | [2] | [3] | [4]

CNC(=O)c1c(NC(=O)c2cc(Br)nn2-c2ncccc2Cl)c(Br)cc2c1S(=O)(=O)C(C)C2 (stereo not shown) [P.88]
> 80%: [1] | [2] | [3] | [5]

O=C(NC1(C2CC2)CC1)c1c(NC(=O)c2cc(Br)nn2-c2ncccc2Cl)c(Cl)cc2c1OC(F)(F)O2 [P.21]
not listed: [6]
> 80%: all other assays above

COc1cc(C(=O)Nc2c(Cl)cc3c(c2C(=O)NC(C)C)OCO3)n(-c2ncccc2Cl)n1 [P.12]
> 80%: [1] | [2] | [3] | [5]

CCNC(=O)c1c(NC(=O)c2cc(C(F)F)nn2-c2ncccc2Cl)c(Cl)cc2c1OCO2 [P.5]
> 80%: [1] | [2] | [3] | [5]

Cc1cc2c(c(C(=O)NCC3CC3)c1NC(=O)c1cc(C(F)(F)F)nn1-c1ncccc1Cl)OC(F)(F)O2 [P.46]
> 80%: [1] | [2] | [3] | [4]

Cc1cc2c(c(C(=O)NC3(C4CC4)CC3)c1NC(=O)c1cc(Br)nn1-c1ncccc1Cl)OC(F)(F)O2 [P.28]
> 80%: [1] | [2] | [3] | [4]

Cc1cc2c(c(C(=O)NC3(C4CC4)CC3)c1NC(=O)c1cc(C(F)F)nn1-c1ncccc1Cl)OCO2 [P.71]
> 80%: [1] | [2] | [3] | [5]

COc1cc(C(=O)Nc2c(Br)cc3c(c2C(=O)NC(C)C)OC(F)(F)O3)n(-c2ncccc2Cl)n1 [P.40]
> 80%: [1] | [2] | [3] | [4]

O=C(NC1(C2CC2)CC1)c1c(NC(=O)c2cc(C(F)(F)F)nn2-c2ncccc2Cl)c(Cl)cc2c1OC(F)(F)O2 [P.17]
> 80%: [1] | [2] | [3] | [4]

CC(C)NC(=O)c1c(NC(=O)c2cc(Br)nn2-c2ncccc2Cl)ccc2c1S(=O)(=O)C(C)C2 (stereo not shown) [P.60]
> 80%: [1] | [2] | [3] | [4]

CC(C)NC(=O)c1c(NC(=O)c2cc(C(F)F)nn2-c2ncccc2Cl)c(Cl)cc2c1OCO2 [P.4]
> 80%: [1] | [2] | [3] | [4]
